6 compounds from EP4603105A1, “PHARMACEUTICAL COMPOSITION CONTAINING CYCLIC COMPOUND HAVING SELECTIVE KRAS INHIBITORY EFFECT AGAINST HRAS AND NRAS” (CHUGAI SEIYAKU KABUSHIKI KAISHA, priority 2022, dated 2024) can be followed below.

Test [1] addresses GDP-bound NRAS wild-type protein (Homo sapiens, UniProt P01111). Briefly: Binding to NRAS by surface plasmon resonance (SPR), KD and KD ratio to KRAS. The note with it: ratio of KD for GDP-bound NRAS wild-type protein to KD for KRAS. In outline:
(§1)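 Compound binding is evaluated by SPR single-cycle kinetics, with concentrations added intermittently from low to high for 75 s each. Target surfaces carry GDP-loaded biotinylated Avi-RAS at about 100–300 RU, regenerated after each cycle; temperature 30°C. A 1:1 binding model gives KD.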

The test system of test [2] is human lung cancer strain NCI-H441. Briefly: NCI-H441 cell proliferation inhibitory activity (CellTiter-Glo, 4 days). It counts as cell-based. The note with it: NCI-H441 cells, 4 days, read-out: NCl-H441 IC50. Summed up: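 Proliferation was scored by […] measured after the reagent was added to cultures kept at 37°C in 5% carbon dioxide.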
For test [3], the target named is GDP-bound KRAS wild-type protein (Homo sapiens, UniProt P01116). Description: Binding to KRAS by surface plasmon resonance (SPR), dissociation constant KD. The note with it: 1:1 binding model. In outline:
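Biotinylated GDP-bound RAS was captured at about 100–300 RU. Running buffer: HBS pH 7.4, 10 mM MgCl2, 10 µM GDP, 1 mM DTT, 0.01% Tween 20, 4% DMSO.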

In a further test the target is HRAS wild-type protein (Homo sapiens, UniProt P01112). Description: Binding to HRAS by surface plasmon resonance (SPR), KD and KD ratio to KRAS. As to conditions: ratio of KD for HRAS wild-type protein to KD for KRAS. In outline:
as §1

HRAS wild-type protein, sequence (P01112 whole entry): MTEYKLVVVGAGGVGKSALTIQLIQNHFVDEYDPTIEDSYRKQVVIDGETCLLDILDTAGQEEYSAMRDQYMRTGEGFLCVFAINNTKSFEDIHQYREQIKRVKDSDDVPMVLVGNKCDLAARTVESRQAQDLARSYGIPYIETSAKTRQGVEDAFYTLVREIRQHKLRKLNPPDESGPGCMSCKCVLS
GDP-bound KRAS wild-type protein, sequence (P01116 1-188 isoform P01116-2): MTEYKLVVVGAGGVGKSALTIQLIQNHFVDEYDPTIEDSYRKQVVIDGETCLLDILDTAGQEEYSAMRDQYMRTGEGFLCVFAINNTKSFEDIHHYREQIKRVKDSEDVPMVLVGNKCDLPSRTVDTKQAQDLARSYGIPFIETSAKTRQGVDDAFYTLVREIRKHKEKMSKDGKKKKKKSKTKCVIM
GDP-bound NRAS wild-type protein, sequence (P01111 whole entry): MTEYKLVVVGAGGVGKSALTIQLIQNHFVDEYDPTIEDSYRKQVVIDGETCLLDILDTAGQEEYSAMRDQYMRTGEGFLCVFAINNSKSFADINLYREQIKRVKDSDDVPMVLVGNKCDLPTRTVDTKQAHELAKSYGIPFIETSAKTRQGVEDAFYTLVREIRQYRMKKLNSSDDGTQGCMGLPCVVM

In the case of `CCC[C@H]1C(=O)N[C@@H]([C@@H](C)CC)C(=O)N(C2CC2)CC(=O)N(C)[C@H]2C/C=C\CCN(C2=O)[C@@H](Cc2ccc(C)cc2)C(=O)N(C)CC(=O)N[C@@H](CCc2ccc(C(F)(F)F)c(OC)c2)C(=O)N2C[C@@H](C)C[C@H]2C(=O)N(C)C2(CCC2)C(=O)N(C)[C@@H](C2CCCC2)C(=O)N(C)[C@H](C(=O)N(C)C)CC(=O)N1C` [PP2366], the “NRAS /KRAS” value in test [1] was “A (a compound having 10 or more and less than 20 is denoted as A)”. For the same compound, the IC50 in test [2] is 4.5 nM. Moreover, the dissociation constant Kd in test [3] is 0.048 nM. The “HRAS /KRAS” value on HRAS wild-type protein was “A (a compound having 10 or more and less than 20 is denoted as A)”.
Turning to `CCCOC[C@H]1C(=O)N[C@@H]([C@@H](C)CC)C(=O)N(C2CC2)CC(=O)N(C)[C@H]2C/C=C\CCN(C2=O)[C@@H](Cc2ccc(C)cc2)C(=O)N(C)CC(=O)N[C@@H](CCc2ccc(C(F)(F)F)c(OC)c2)C(=O)N2C[C@@H](C)C[C@H]2C(=O)N(C)C2(CCC2)C(=O)N(C)[C@@H](C2CCCC2)C(=O)N(C)[C@H](C(=O)N(C)C)CC(=O)N1C` [PP2367], the “NRAS /KRAS” value in test [1] is “A (a compound having 10 or more and less than 20 is denoted as A)”. Further, in test [2], the 50% inhibitory concentration (IC50) turned out to be 2.1 nM. Besides, in test [3], binding was put at a Kd of 0.075 nM. Besides, the “HRAS /KRAS” value at HRAS wild-type protein was “B (a compound having 3 or more and less than 10 is denoted as B)”.
For the compound `CCC[C@H]1C(=O)N[C@@H]([C@@H](C)CC)C(=O)N2CCC[C@H]2C(=O)N(C)[C@H]2C/C=C\CCN(C2=O)[C@@H](Cc2ccc(C)cc2)C(=O)N(C)CC(=O)N[C@@H](CCc2ccc(C(F)(F)F)c(OC)c2)C(=O)N2C[C@@H](C)C[C@H]2C(=O)N(C)C2(CCC2)C(=O)N(C)[C@@H](C2CCCC2)C(=O)N(C)[C@H](C(=O)N(C)C)CC(=O)N1C` [PP2368], the “NRAS /KRAS” value in test [1] was “A (a compound having 10 or more and less than 20 is denoted as A)”. Also, the IC50 in test [2] came to 4.1 nM. In test [3], this compound returned a Kd of 0.045 nM. Besides, the “HRAS /KRAS” value on HRAS wild-type protein was “A (a compound having 10 or more and less than 20 is denoted as A)”.
For `CCCOC[C@H]1C(=O)N[C@@H]([C@@H](C)CC)C(=O)N2CCC[C@H]2C(=O)N(C)[C@H]2C/C=C\CCN(C2=O)[C@@H](Cc2ccc(C)cc2)C(=O)N(C)CC(=O)N[C@@H](CCc2ccc(C(F)(F)F)c(OC)c2)C(=O)N2C[C@@H](C)C[C@H]2C(=O)N(C)C2(CCC2)C(=O)N(C)[C@@H](C2CCCC2)C(=O)N(C)[C@H](C(=O)N(C)C)CC(=O)N1C` [PP2369], in test [1], the “NRAS /KRAS” value was “A (a compound having 10 or more and less than 20 is denoted as A)”. For the same compound, the IC50 in test [2] stood at 4.5 nM. Also, in test [3], binding was put at a Kd of 0.062 nM. Also, the “HRAS /KRAS” value at HRAS wild-type protein was “B (a compound having 3 or more and less than 10 is denoted as B)”.
Take `CCC[C@H]1C(=O)N[C@@H]([C@@H](C)CC)C(=O)N(C)CC(=O)N(C)[C@H]2C/C=C\CCN(C2=O)[C@@H](CC2CCCCC2)C(=O)N(C)CC(=O)N[C@@H](CCc2ccc(C(F)(F)F)c(OC)c2)C(=O)N2C[C@@H](C)C[C@H]2C(=O)N(C)C2(CCC2)C(=O)N(C)[C@@H](C2CCCC2)C(=O)N(C)[C@H](C(=O)N(C)C)CC(=O)N1C` [PP2370]: the “NRAS /KRAS” value in test [1] was “B (a compound having 3 or more and less than 10 is denoted as B)”. Moreover, the concentration for half-maximal inhibition (IC50) in test [2] was determined as 25.7 nM. Moreover, in test [3], binding was characterised by a dissociation constant (Kd) of 0.54 nM. The “HRAS /KRAS” value at HRAS wild-type protein is “B (a compound having 3 or more and less than 10 is denoted as B)”.
As to `CCOC[C@H]1C(=O)N[C@@H]([C@@H](C)CC)C(=O)N(C)CC(=O)N(C)[C@H]2C/C=C\CCN(C2=O)[C@@H](CC2CCCCC2)C(=O)N(C)CC(=O)N[C@@H](CCc2ccc(C(F)(F)F)c(OC)c2)C(=O)N2C[C@@H](C)C[C@H]2C(=O)N(C)C2(CCC2)C(=O)N(C)[C@@H](C2CCCC2)C(=O)N(C)[C@H](C(=O)N(C)C)CC(=O)N1C` [PP2371], the “NRAS /KRAS” value in test [1] is “A (a compound having 10 or more and less than 20 is denoted as A)”. In addition, the half-maximal inhibitory concentration (IC50) in test [2] is 41.9 nM. The Kd in test [3] was found to be 0.64 nM. Further, on HRAS wild-type protein, the “HRAS /KRAS” value was “B (a compound having 3 or more and less than 10 is denoted as B)”.
